Format in all cases: functional
Assay [1] relates to Medicago polymorpha. The assay can be described thus: Herbicidal activity against Medicago polymorpha infested wheat field assessed as weed dry weight at 120 g/ha applied at 32 to 35 days after sowing through sprayer measured 100 days after sowing (reference value: 313.7 g/m2).
In assay [2] the test system is Phalaris minor. As to the kind of experiment: Herbicidal activity against isoproturon-resistant Phalaris minor infested wheat field assessed as wheat yield at 120 g/ha applied at 32 to 35 days after sowing through sprayer (reference value: 3.41 t/ha).
The subject of assay [3] is Phalaris minor. The assay can be described thus: Herbicidal activity against isoproturon-resistant Phalaris minor infested wheat field assessed as weed dry weight at 120 g/ha applied at 32 to 35 days after sowing through sprayer measured 100 days after sowing (reference value: 313.7 g/m2).
Assay [4] relates to Lepidium didymum. The assay can be described thus: Herbicidal activity against Lepidium didymum infested wheat field assessed as weed dry weight at 120 g/ha applied at 32 to 35 days after sowing through sprayer measured 100 days after sowing (reference value: 313.7 g/m2).
Assay [5] relates to Melilotus albus. As to the kind of experiment: Herbicidal activity against Melilotus albus infested wheat field assessed as weed dry weight at 120 g/ha applied at 32 to 35 days after sowing through sprayer measured 100 days after sowing (reference value: 313.7 g/m2).
Assay [6] deals with Phalaris minor. The assay can be described thus: Herbicidal activity against isoproturon-resistant Phalaris minor infested wheat field assessed as weed dry weight at 30 g/ha applied at 35 days after sowing through sprayer in presence of 0.5 % surfactant A 12127 measured 95 days after sowing (reference value: 213.0 g/m2).
Assay [7] concerns Phalaris minor. As to the kind of experiment: Herbicidal activity against isoproturon-resistant Phalaris minor infested wheat field assessed as wheat yield at 35 g/ha applied at 35 days after sowing through sprayer in presence of 0.5 % surfactant A 12127 measured 95 days after sowing (reference value: 3.05 t/ha).
For assay [8], the system named is Phalaris minor. As to the kind of experiment: Herbicidal activity against isoproturon-resistant Phalaris minor infested wheat field assessed as wheat yield at 30 g/ha applied at 35 days after sowing through sprayer in presence of 0.5 % surfactant A 12127 measured 95 days after sowing (reference value: 3.05 t/ha).
For assay [9], the system named is Phalaris minor. The assay can be described thus: Herbicidal activity against isoproturon-resistant Phalaris minor infested wheat field assessed as weed dry weight at 35 g/ha applied at 35 days after sowing through sprayer in presence of 0.5 % surfactant A 12127 measured 95 days after sowing (reference value: 213.0 g/m2).
The test system of assay [10] is Lepidium didymum. As to the kind of experiment: Herbicidal activity against Lepidium didymum infested wheat field assessed as weed dry weight at 60 g/ha applied at 32 to 35 days after sowing through sprayer measured 100 days after sowing (reference value: 313.7 g/m2).
Assay [11] deals with Phalaris minor. The assay can be described thus: Herbicidal activity against isoproturon-resistant Phalaris minor infested wheat field assessed as weed dry weight at 60 g/ha applied at 32 to 35 days after sowing through sprayer measured 100 days after sowing (reference value: 313.7 g/m2).
Assay [12] relates to Phalaris minor. As to the kind of experiment: Herbicidal activity against isoproturon-resistant Phalaris minor infested wheat field assessed as weed dry weight at 60 g/ha applied at 35 days after sowing through sprayer measured 95 days after sowing (reference value: 213.0 g/m2).
Assay [13] relates to Medicago polymorpha. The assay can be described thus: Herbicidal activity against Medicago polymorpha infested wheat field assessed as weed dry weight at 60 g/ha applied at 32 to 35 days after sowing through sprayer measured 100 days after sowing (reference value: 313.7 g/m2).
The subject of assay [14] is Phalaris minor. As to the kind of experiment: Herbicidal activity against isoproturon-resistant Phalaris minor infested wheat field assessed as wheat yield at 60 g/ha applied at 35 days after sowing through sprayer measured 95 days after sowing (reference value: 3.05 t/ha).
Assay [15] deals with Melilotus albus. The assay can be described thus: Herbicidal activity against Melilotus albus infested wheat field assessed as weed dry weight at 60 g/ha applied at 32 to 35 days after sowing through sprayer measured 100 days after sowing (reference value: 313.7 g/m2).
The subject of assay [16] is Phalaris minor. The assay can be described thus: Herbicidal activity against isoproturon-resistant Phalaris minor infested wheat field assessed as wheat yield at 60 g/ha applied at 32 to 35 days after sowing through sprayer (reference value: 3.41 t/ha).
Assay [17] relates to Phalaris minor. As to the kind of experiment: Herbicidal activity against isoproturon-resistant Phalaris minor infested wheat field assessed as wheat yield at 1000 g/ha applied at 32 to 35 days after sowing through sprayer (reference value: 3.41 t/ha).
For assay [18], the system named is Phalaris minor. The assay can be described thus: Herbicidal activity against isoproturon-resistant Phalaris minor infested wheat field assessed as weed dry weight at 1000 g/ha applied at 32 to 35 days after sowing through sprayer measured 100 days after sowing (reference value: 313.7 g/m2).
The subject of assay [19] is Medicago polymorpha. As to the kind of experiment: Herbicidal activity against Medicago polymorpha infested wheat field assessed as weed dry weight at 1000 g/ha applied at 32 to 35 days after sowing through sprayer measured 100 days after sowing (reference value: 313.7 g/m2).
For assay [20], the system named is Phalaris minor. As to the kind of experiment: Herbicidal activity against isoproturon-resistant Phalaris minor infested wheat field assessed as wheat yield at 1000 g/ha applied at 35 days after sowing through sprayer measured 95 days after sowing (reference value: 3.05 t/ha).
Assay [21] relates to Phalaris minor. As to the kind of experiment: Herbicidal activity against isoproturon-resistant Phalaris minor infested wheat field assessed as weed dry weight at 1000 g/ha applied at 35 days after sowing through sprayer measured 95 days after sowing (reference value: 213.0 g/m2).
Assay [22] concerns Phalaris minor. As to the kind of experiment: Post-emergence herbicidal activity against isoproturon-resistant Phalaris minor infested wheat field assessed as reduction in weed dry weight at 1000 g/ha applied on 1 after sowing through sprayer measured 120 days after sowing relative to control. On the set-up: scale not given: the % may be the effect or the level left.
Assay [23] has as its system Melilotus albus. The assay can be described thus: Herbicidal activity against Melilotus albus infested wheat field assessed as weed dry weight at 1000 g/ha applied at 32 to 35 days after sowing through sprayer measured 100 days after sowing (reference value: 313.7 g/m2).
In assay [24] the test system is Lepidium didymum. The assay can be described thus: Herbicidal activity against Lepidium didymum infested wheat field assessed as weed dry weight at 1000 g/ha applied at 32 to 35 days after sowing through sprayer measured 100 days after sowing (reference value: 313.7 g/m2).
The test system of assay [25] is Phalaris minor. The assay can be described thus: Pre-emergence herbicidal activity against isoproturon-resistant Phalaris minor infested wheat field assessed as reduction in weed dry weight at 1250 g/ha applied on 1 after sowing through sprayer measured 120 days after sowing relative to control. On the set-up: scale not given: the % may be the effect or the level left.

The test system of assay [26] is Phalaris minor. The assay can be described thus: Post-emergence herbicidal activity against isoproturon-resistant Phalaris minor infested wheat field assessed as reduction in weed dry weight at 280 g/ha applied on 1 after sowing through sprayer measured 120 days after sowing relative to control. Also noted: scale not given: the % may be the effect or the level left.

The test system of assay [27] is Phalaris minor. As to the kind of experiment: Herbicidal activity against isoproturon-resistant Phalaris minor infested wheat field assessed as weed dry weight at 120 g/ha applied at 32 to 35 days after sowing through sprayer in presence of surfactant MON 0818 measured 100 days after sowing (reference value: 313.7 g/m2).
Assay [28] has as its system Melilotus albus. The assay can be described thus: Herbicidal activity against Melilotus albus infested wheat field assessed as weed dry weight at 120 g/ha applied at 32 to 35 days after sowing through sprayer in presence of surfactant MON 0818 measured 100 days after sowing (reference value: 313.7 g/m2).
For assay [29], the system named is Lepidium didymum. As to the kind of experiment: Herbicidal activity against Lepidium didymum infested wheat field assessed as weed dry weight at 120 g/ha applied at 32 to 35 days after sowing through sprayer in presence of surfactant MON 0818 measured 100 days after sowing (reference value: 313.7 g/m2).
For assay [30], the system named is Phalaris minor. The assay can be described thus: Herbicidal activity against isoproturon-resistant Phalaris minor infested wheat field assessed as wheat yield at 120 g/ha applied at 32 to 35 days after sowing through sprayer in presence of surfactant MON 0818 (reference value: 3.41 t/ha).
The test system of assay [31] is Medicago polymorpha. The assay can be described thus: Herbicidal activity against Medicago polymorpha infested wheat field assessed as weed dry weight at 120 g/ha applied at 32 to 35 days after sowing through sprayer in presence of surfactant MON 0818 measured 100 days after sowing (reference value: 313.7 g/m2).
For assay [32], the system named is Phalaris minor. The assay can be described thus: Post-emergence herbicidal activity against isoproturon-resistant Phalaris minor infested wheat field assessed as reduction in weed dry weight at 25 g/ha applied on 1 after sowing through sprayer measured 120 days after sowing relative to control. Also noted: scale not given: the % may be the effect or the level left.

Regarding `C[C@@H](Oc1ccc(Oc2nc3ccc(Cl)cc3o2)cc1)C(=O)O` [FENOXAPROP-P], the Activity with Medicago polymorpha [1] was 25.2 g/m2; in the assay on Phalaris minor [3] it was 5.9 g/m2; in the assay with Lepidium didymum [4], 25.2 g/m2; in the assay with Melilotus albus [5], 25.2 g/m2. In the assay with Phalaris minor [2], the Crop_yield is given as 5.96 tons/ha.
As for `CCc1cc(C)cc(CC)c1-c1c(OC(=O)C(C)(C)C)n2n(c1=O)CCOCC2` [PINOXADEN], the Activity with Phalaris minor [6] is given as 2.3 g/m2; in the assay on Phalaris minor [9] it was 0.3 g/m2. In addition, the Crop_yield in the assay with Phalaris minor [7] was 5.38 tons/ha; in the assay with Phalaris minor [8], 5.44 tons/ha.
Take `C[C@@H](Oc1ccc(Oc2ncc(Cl)cc2F)cc1)C(=O)O` [CLODINAFOP]: the Activity with Lepidium didymum [10] came to 38.3 g/m2; with Phalaris minor [11], 0.6 g/m2; in the assay with Phalaris minor [12], 0.6 g/m2; with Medicago polymorpha [13], 38.3 g/m2; in the assay on Melilotus albus [15] it was 38.3 g/m2. The Crop_yield in the assay with Phalaris minor [14] is 5.42 tons/ha; with Phalaris minor [16] it was 6.01 tons/ha.
Turning to `CC(C)c1ccc(NC(=O)N(C)C)cc1` [ISOPROTURON], the Crop_yield stood at 3.99 tons/ha with Phalaris minor [17] and 3.61 tons/ha with Phalaris minor [20]. Moreover, the Activity with Phalaris minor [18] amounted to 242 g/m2; with Medicago polymorpha [19], 3 g/m2; in the assay with Phalaris minor [21], 179.2 g/m2; in the assay on Phalaris minor [22] it was 26.2%; with Melilotus albus [23] it was 3 g/m2; in the assay with Lepidium didymum [24], 3 g/m2.
On to `CCC(CC)Nc1c([N+](=O)[O-])cc(C)c(C)c1[N+](=O)[O-]` [PENDIMETHALIN], for which the Activity with Phalaris minor [25] is 88.5%.
Regarding `CSc1nnc(C(C)(C)C)c(=O)n1N` [METRIBUZIN], the Activity with Phalaris minor [26] turned out to be 94.7%.
In the case of `CCS(=O)(=O)c1nc2ccccn2c1S(=O)(=O)NC(=O)Nc1nc(OC)cc(OC)n1` [SULFOSULFURON], the Activity in the assay on Phalaris minor [27] stood at 0.3 g/m2; in the assay on Melilotus albus [28], 1.8 g/m2; in the assay with Lepidium didymum [29], 1.8 g/m2; in the assay with Medicago polymorpha [31], 1.8 g/m2; with Phalaris minor [32] it was 93.8%. For the same molecule, the Crop_yield in the assay on Phalaris minor [30] is given as 6.2 tons/ha.

These data come from ChEMBL document CHEMBL3045527, “Herbicides for control of isoproturon-resistant Littleseed Canarygrass (Phalaris minor) in wheat” (2008).
